Reference: patent publication US20130096305A1, “[…] […]” (priority 2010, published 2013)

tested on: HIV-1 LAI envelope single-round infectious reporter virus; experiment: Single-round infectious luciferase reporter virus infection of MT2 cells; format: cell-based; conditions: Human immunodeficiency virus 1, MT2, 72 h
Source text: • Virus production—Human embryonic Kidney cell line, 293T (HEK 293T), was propagated in Dulbecco's Modified Eagle Medium (Invitrogen, Carlsbad, Calif.) containing 10% fetal Bovine serum (FBS, Sigma, St. Louis, Mo.). The human T-cell leukemia cell MT2 (AIDS Research and Reference Reagent Program, Cat. 237) was propagated in RPMI 1640 (Invitrogen, Carlsbad, Calif.) containing 10% fetal bovine serum (FBS, Hyclone, Logan, Utah) • Virus infection—Single-round infectious reporter virus was produced by co-transfecting HEK 293T cells with plasmide expressing the HIV-1 LAI envelope along with a plasmid containing an HIV-1 LAI proviral cDNA with the envelope gene replaced by a firefly luciferase reporter gene (Chen et al, Ref 41). Transfections were performed using lipofectAMINE PLUS reagent as described by the manufacturer (Invitrogen, Carlsbad, Calif.).
• 1. MT2 cells were plated in black, 384 well plates at a cell density of 5×10^3 cells per well in 25 μl RPMI 1640 containing 10% FBS. • 2. Compound (diluted in dimethylsulfoxide and growth medium) was added to cells at 12.5 μl/well, so that the final assay concentration would be ≦50 nM. • 3. 12.5 μl of single-round infectious reporter virus in Dulbecco's Modified Eagle Medium was added to the plated cells and compound at an approximate multiplicity of infection (MOI) of 0.01, resulting in a final volume of 50 μl per well. • 4. Virus-infected cells were incubated at 37 degrees Celsius, in a CO2 incubator, and harvested 72 h after infection. • 5. Viral infection was monitored by measuring luciferase expression in the infected cells using a luciferase reporter gene assay kit (Steady-Glo, Promega, Madison, Wis.) as described by the manufacturer. Luciferase activity was then quantified by measuring luminescence using an EnVision Multilabel Plate Readers (PerkinElmer, Waltham, Mass.). • 6. The percent inhibition for each compound was calculated by quantifying the level of luciferase expression in cells infected in the presence of each compound as a percentage of that observed for cells infected in the absence of compound and subtracting such a determined value from 100. • 7. An EC50 provides a method for comparing the antiviral potency of the compounds of this disclosure. The effective concentration for fifty percent inhibition (EC50) was calculated with the Microsoft Excel Xlfit curve fitting software. For each compound, curves were generated from percent inhibition calculated at 10 different concentrations by using a four paramenter logistic model (model 205).

| SMILES | EC50 [pM] |
| --- | --- |
| [2H]c1c([2H])c([2H])c(C(=O)N2C([2H])([2H])C([2H])([2H])N(C(=O)C(=O)c3c[nH]c4c(OC)ncc(OC)c34)C([2H])([2H])C2([2H])[2H])c([2H])c1[2H] [Compound 0001] | 670 |
| [2H]c1c([2H])c([2H])c(C(=O)N2CCN(C(=O)C(=O)c3c[nH]c4c(OC)ncc(OC)c34)CC2)c([2H])c1[2H] [Compound 0002] | 630 |
| [2H]C1([2H])N(C(=O)C(=O)c2c[nH]c3c(OC)ncc(OC)c23)C([2H])([2H])C([2H])([2H])N(C(=O)c2ccccc2)C1([2H])[2H] [Compound 0003] | 550 |
| [2H]c1c([2H])c([2H])c(C(=O)N2C([2H])([2H])C([2H])([2H])N(C(=O)C(=O)c3c[nH]c4c(-n5ccnn5)ncc(OC)c34)C([2H])([2H])C2([2H])[2H])c([2H])c1[2H] [Compound 0004] | 100 |
| [2H]c1c([2H])c([2H])c(C(=O)N2CCN(C(=O)C(=O)c3c[nH]c4c(-n5ccnn5)ncc(OC)c34)CC2)c([2H])c1[2H] [Compound 0005] | 240 |
| [2H]C1([2H])N(C(=O)C(=O)c2c[nH]c3c(-n4ccnn4)ncc(OC)c23)C([2H])([2H])C([2H])([2H])N(C(=O)c2ccccc2)C1([2H])[2H] [Compound 0006] | 80 |
| [2H]c1c([2H])c([2H])c(C(=O)N2C([2H])([2H])C([2H])([2H])N(C(=O)C(=O)c3c[nH]c4c(-n5ccnn5)ncc(F)c34)C([2H])([2H])C2([2H])[2H])c([2H])c1[2H] [Compound 0007] | 110 |
| [2H]c1c([2H])c([2H])c(C(=O)N2CCN(C(=O)C(=O)c3c[nH]c4c(-n5ccnn5)ncc(F)c34)CC2)c([2H])c1[2H] [Compound 0008] | 100 |
| [2H]C1([2H])N(C(=O)C(=O)c2c[nH]c3c(-n4ccnn4)ncc(F)c23)C([2H])([2H])C([2H])([2H])N(C(=O)c2ccccc2)C1([2H])[2H] [Compound 0009] | 140 |
| [2H]c1c([2H])c([2H])c(C(=O)N2C([2H])([2H])C([2H])([2H])N(C(=O)C(=O)c3c[nH]c4c(-n5cnc(C)n5)ncc(OC)c34)C([2H])([2H])C2([2H])[2H])c([2H])c1[2H] [Compound 0010] | 60 |
| [2H]c1c([2H])c([2H])c(C(=O)N2CCN(C(=O)C(=O)c3c[nH]c4c(-n5cnc(C)n5)ncc(OC)c34)CC2)c([2H])c1[2H] [Compound 0011] | 120 |
| [2H]C1([2H])N(C(=O)C(=O)c2c[nH]c3c(-n4cnc(C)n4)ncc(OC)c23)C([2H])([2H])C([2H])([2H])N(C(=O)c2ccccc2)C1([2H])[2H] [Compound 0012] | 70 |
